Laboratory results: ChEMBL document CHEMBL3352461, “Discovery and optimization of 5-fluoro-4,6-dialkoxypyrimidine GPR119 agonists” (Bioorg Med Chem Lett, 2014)
The source made the active and inactive calls. No cut-off for these calls is given here.

Experiments:
Rattus norvegicus [1] = experiment: Reduction in plasma glucose level in Zucker diabetic fatty rat at 3 mg/kg, po administered 30 mins prior to challenge measured in 20 mins interval for 120 mins by oral glucose tolerance test relative to vehicle-treated control; assay type: functional; set-up: scale not given: the % may be the effect or the level left
[2] = Efflux ratio of permeability in human Caco2 cells; assay type: ADME, cell-based; conditions: Caco-2
Cytochrome P450 1A2 = target: T1, Cytochrome P450 1A2 (Homo sapiens, UniProt P05177); experiment: Inhibition of CYP1A2 (unknown origin); assay type: ADME
T1 sequence (P05177 whole entry): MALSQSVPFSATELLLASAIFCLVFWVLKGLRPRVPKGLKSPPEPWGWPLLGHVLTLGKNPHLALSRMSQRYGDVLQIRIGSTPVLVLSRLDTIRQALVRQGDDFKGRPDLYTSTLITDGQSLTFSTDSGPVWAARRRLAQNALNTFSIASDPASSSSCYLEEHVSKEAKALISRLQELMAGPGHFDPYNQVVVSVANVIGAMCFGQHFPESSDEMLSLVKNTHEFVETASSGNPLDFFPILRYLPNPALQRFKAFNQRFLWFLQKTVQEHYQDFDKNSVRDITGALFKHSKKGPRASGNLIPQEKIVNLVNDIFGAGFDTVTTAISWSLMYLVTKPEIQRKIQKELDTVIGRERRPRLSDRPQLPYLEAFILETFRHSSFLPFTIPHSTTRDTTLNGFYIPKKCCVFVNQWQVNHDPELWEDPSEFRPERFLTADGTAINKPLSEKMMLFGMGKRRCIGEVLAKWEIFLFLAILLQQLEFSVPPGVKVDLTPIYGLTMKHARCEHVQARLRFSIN

Rattus norvegicus [3] = experiment: Bioavailability in Sprague-Dawley rat at 2 mg/kg, iv and po; assay type: ADME, organism-based; conditions: in vivo
[4] = Stability in dog hepatocytes assessed as compound remaining after 90 mins; assay type: ADME, cell-based, Canis lupus familiaris, Hepatocyte; conditions: read-out: Stability
Rattus norvegicus [5] = experiment: Reduction in plasma glucose level in Zucker diabetic fatty rat at 10 to 30 mg/kg, po administered 30 mins prior to challenge measured in 20 mins interval for 120 mins by oral glucose tolerance test relative to vehicle-treated control in presence of sitagliptin; assay type: functional; set-up: scale not given: the % may be the effect or the level left; conditions: dose mg/kg 10-30
[6] = Stability in rat hepatocytes assessed as compound remaining after 90 mins; assay type: ADME, cell-based, Hepatocyte; conditions: read-out: Stability
[7] = Stability in human hepatocytes assessed as compound remaining after 90 mins; assay type: ADME, cell-based, Hepatocyte; conditions: read-out: Stability
[8] = Elimination half life in Sprague-Dawley rat at 2 mg/kg, po; assay type: ADME, organism-based; set-up: dose 2 mg/kg, route oral; conditions: in vivo, read-out: beta t1/2 (converted)
Rattus norvegicus [9] = experiment: Reduction in plasma glucose level in Zucker diabetic fatty rat at 10 to 30 mg/kg, po administered 30 mins prior to challenge measured in 20 mins interval for 120 mins by oral glucose tolerance test relative to vehicle-treated control; assay type: functional; set-up: scale not given: the % may be the effect or the level left; conditions: dose mg/kg 10-30
Cytochrome P450 3A4 = Cytochrome P450 3A4 (Homo sapiens, UniProt P08684); experiment: Inhibition of CYP3A4 (unknown origin); assay type: ADME
Sequence of Cytochrome P450 3A4 (P08684 whole entry): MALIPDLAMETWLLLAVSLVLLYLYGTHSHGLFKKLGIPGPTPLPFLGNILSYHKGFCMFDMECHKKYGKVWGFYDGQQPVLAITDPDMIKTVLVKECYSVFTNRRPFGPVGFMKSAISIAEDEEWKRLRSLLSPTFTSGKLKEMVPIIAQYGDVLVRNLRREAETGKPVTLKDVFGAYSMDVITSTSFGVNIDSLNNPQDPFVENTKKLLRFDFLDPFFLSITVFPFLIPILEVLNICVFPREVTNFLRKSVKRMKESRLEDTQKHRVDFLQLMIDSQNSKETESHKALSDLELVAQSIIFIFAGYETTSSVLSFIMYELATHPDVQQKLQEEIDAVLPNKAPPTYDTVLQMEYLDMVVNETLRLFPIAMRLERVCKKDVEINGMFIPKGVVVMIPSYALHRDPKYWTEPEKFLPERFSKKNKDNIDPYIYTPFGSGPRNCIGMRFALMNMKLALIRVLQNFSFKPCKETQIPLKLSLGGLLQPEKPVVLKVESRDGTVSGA

[10] = target: T2, Glucose-dependent insulinotropic receptor (Homo sapiens, UniProt Q8TDV5); experiment: […] of human GPR119 activity by homogeneous time resolved fluorescence cyclase (cAMP) assay; assay type: functional
T2 sequence (Q8TDV5 whole entry): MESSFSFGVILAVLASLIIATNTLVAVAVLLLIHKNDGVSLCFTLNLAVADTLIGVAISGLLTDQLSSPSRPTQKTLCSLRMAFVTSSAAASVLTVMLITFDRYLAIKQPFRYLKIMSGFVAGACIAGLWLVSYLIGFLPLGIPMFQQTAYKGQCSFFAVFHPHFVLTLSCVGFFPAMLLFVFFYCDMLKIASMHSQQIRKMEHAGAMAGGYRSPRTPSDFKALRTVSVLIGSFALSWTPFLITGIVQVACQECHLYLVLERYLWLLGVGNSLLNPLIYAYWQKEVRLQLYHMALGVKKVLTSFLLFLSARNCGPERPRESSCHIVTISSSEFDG

Cytochrome P450 2C9 = Cytochrome P450 2C9 (Homo sapiens, UniProt P11712); experiment: Inhibition of CYP2C9 (unknown origin); assay type: ADME
Sequence of Cytochrome P450 2C9 (P11712 whole entry): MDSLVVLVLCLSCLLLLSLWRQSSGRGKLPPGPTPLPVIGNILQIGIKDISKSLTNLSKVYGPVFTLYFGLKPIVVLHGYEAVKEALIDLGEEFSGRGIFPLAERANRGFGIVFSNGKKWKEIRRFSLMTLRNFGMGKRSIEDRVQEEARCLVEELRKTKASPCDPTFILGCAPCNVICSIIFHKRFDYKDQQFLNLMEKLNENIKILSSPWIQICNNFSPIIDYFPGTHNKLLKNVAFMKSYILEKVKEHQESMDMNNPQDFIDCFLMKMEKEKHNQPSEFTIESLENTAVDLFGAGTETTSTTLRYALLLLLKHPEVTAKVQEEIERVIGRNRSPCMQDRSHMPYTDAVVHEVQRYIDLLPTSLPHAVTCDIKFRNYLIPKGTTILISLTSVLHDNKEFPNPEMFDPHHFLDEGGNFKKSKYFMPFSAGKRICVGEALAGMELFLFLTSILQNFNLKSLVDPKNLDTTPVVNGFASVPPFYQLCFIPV

[11] = Stability in monkey hepatocytes assessed as compound remaining after 90 mins; assay type: ADME, cell-based, Macaca mulatta, Hepatocyte; conditions: rhesus monkey, read-out: Stability
Rattus norvegicus [12] = experiment: Volume of distribution at steady state in Sprague-Dawley rat at 2 mg/kg, iv and po; assay type: ADME, organism-based; set-up: dose 2 mg/kg, route oral; conditions: in vivo
Mus musculus [13] = experiment: Reduction in plasma glucose level in normoglycemic 129SVE mouse at 3 to 10 mg/kg, po administered 30 mins prior to challenge measured in 20 mins interval for 120 mins by oral glucose tolerance test relative to vehicle-treated control; assay type: functional; set-up: scale not given: the % may be the effect or the level left; conditions: dose mg/kg 3-10
Rattus norvegicus [14] = experiment: AUClast in Sprague-Dawley rat at 2 mg/kg, iv and po; assay type: ADME, organism-based, Plasma; set-up: dose 2 mg/kg, route oral; conditions: in vivo
Cytochrome P450 2D6 = Cytochrome P450 2D6 (Homo sapiens, UniProt P10635); experiment: Inhibition of CYP2D6 (unknown origin); assay type: ADME
Sequence of Cytochrome P450 2D6 (P10635 whole entry): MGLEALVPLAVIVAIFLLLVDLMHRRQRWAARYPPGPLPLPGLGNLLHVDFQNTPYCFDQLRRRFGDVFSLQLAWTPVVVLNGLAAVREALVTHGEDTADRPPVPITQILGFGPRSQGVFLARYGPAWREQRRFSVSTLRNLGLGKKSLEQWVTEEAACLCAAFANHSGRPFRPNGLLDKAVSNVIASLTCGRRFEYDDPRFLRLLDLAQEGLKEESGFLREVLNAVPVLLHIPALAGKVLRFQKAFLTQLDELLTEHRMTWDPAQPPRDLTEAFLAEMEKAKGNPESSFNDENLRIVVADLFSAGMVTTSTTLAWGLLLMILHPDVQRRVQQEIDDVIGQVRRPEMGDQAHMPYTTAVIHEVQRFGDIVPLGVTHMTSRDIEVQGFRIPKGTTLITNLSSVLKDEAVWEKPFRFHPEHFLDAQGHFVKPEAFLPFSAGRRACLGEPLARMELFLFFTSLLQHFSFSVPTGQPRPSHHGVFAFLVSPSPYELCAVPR

Cytochrome P450 2C19 = Cytochrome P450 2C19 (Homo sapiens, UniProt P33261); experiment: Inhibition of CYP2C19 (unknown origin); assay type: ADME
Sequence of Cytochrome P450 2C19 (P33261 whole entry): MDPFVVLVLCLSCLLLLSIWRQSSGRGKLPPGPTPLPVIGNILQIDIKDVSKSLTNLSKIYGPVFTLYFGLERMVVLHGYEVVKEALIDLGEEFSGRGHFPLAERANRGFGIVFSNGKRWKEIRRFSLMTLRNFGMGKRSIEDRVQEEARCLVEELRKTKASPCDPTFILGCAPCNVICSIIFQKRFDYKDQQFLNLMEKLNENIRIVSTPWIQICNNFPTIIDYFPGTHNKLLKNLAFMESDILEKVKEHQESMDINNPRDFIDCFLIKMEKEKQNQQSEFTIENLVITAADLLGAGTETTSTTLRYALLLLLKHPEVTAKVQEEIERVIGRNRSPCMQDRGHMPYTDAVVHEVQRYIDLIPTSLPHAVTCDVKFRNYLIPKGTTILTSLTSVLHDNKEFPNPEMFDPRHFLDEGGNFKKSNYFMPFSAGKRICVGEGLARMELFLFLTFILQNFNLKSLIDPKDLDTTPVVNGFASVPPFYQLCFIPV

[15] = target: T3, Glucose-dependent insulinotropic receptor (Homo sapiens) (UniProt Q8TDV5); experiment: […] of human GPR119 activity by homogeneous time resolved fluorescence cyclase (cAMP) assay relative to AR231453; assay type: functional
T3 sequence (whole entry): T2 sequence (Q8TDV5 whole entry)

CYP2C9 = CYP2C9 (Homo sapiens, UniProt P11712); experiment: Ratio of APD597 IC50 to compound IC50 for CYP2C9 (unknown origin); assay type: ADME; conditions: read-out: Ratio IC50
Sequence of CYP2C9 (P11712 whole entry): as the sequence (P11712 whole entry) above

Mus musculus [16] = experiment: Increase in GIP release in normoglycemic 129SVE mouse at 3 to 10 mg/kg, po measured after 45 mins; assay type: functional, organism-based
[17] = target: T4, Glucose-dependent insulinotropic receptor (Rattus norvegicus, UniProt Q7TQN8); experiment: […] of rat GPR119 activity by homogeneous time resolved fluorescence cyclase (cAMP) assay; assay type: functional
T4 sequence (Q7TQN8 whole entry): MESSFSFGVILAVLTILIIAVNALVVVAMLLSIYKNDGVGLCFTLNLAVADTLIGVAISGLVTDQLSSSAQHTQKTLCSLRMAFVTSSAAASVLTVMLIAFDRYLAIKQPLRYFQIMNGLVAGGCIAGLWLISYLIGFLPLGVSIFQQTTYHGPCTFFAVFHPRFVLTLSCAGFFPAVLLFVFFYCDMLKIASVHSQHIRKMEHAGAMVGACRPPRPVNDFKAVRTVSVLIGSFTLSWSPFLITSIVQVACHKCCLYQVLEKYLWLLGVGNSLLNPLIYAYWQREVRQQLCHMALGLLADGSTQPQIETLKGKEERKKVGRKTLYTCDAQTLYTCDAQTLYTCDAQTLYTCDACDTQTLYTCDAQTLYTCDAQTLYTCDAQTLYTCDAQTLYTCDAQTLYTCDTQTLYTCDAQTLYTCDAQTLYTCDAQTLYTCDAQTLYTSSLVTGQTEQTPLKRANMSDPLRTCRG

[18] = target: T5, Glucose-dependent insulinotropic receptor (Rattus norvegicus) (UniProt Q7TQN8); experiment: […] of rat GPR119 activity by homogeneous time resolved fluorescence cyclase (cAMP) assay relative to AR231453; assay type: functional
T5 sequence (whole entry): T4 sequence (Q7TQN8 whole entry)

Rattus norvegicus [19] = experiment: Clearance in Sprague-Dawley rat at 2 mg/kg, iv and po; assay type: ADME, organism-based; set-up: dose 2 mg/kg, route oral; conditions: in vivo

In the case of N[C@@H](CC(=O)N1CCn2c(nnc2C(F)(F)F)C1)Cc1cc(F)c(F)cc1F [SITAGLIPTIN], the Activity (Rattus norvegicus [1]) is reported as 70%.

With Cc1nc(S(C)(=O)=O)ccc1Oc1ncnc(OC2CCN(C(=O)OC3(C)CC3)CC2)c1F the efflux ratio [2] was 1, the “inhibition (INH)” value (Cytochrome P450 1A2) was “Not Active” and the F (Rattus norvegicus [3]) was 72.7%. The remaining at 1.5 h [4] was 89%, the Activity (Rattus norvegicus [5]) was 70% and the remaining at 1.5 h [6] was 51%. The remaining at 1.5 h [7] was 100%, the half-life [8] was 2.71 h and the Activity (Rattus norvegicus [9]) was 50%. The “inhibition (INH)” value (Cytochrome P450 3A4) was “Not Active”, the EC50 [10] was 0.0138 µM and the IC50 (Cytochrome P450 2C9) was 25.7 µM. It also gave a remaining at 1.5 h [11] of 50%, a Vdss (Rattus norvegicus [12]) of 2.91 L/kg and an Activity (Mus musculus [13]) of 35%. The AUClast (Rattus norvegicus [14]) was 1220 ng·h/mL, the “inhibition (INH)” value (Cytochrome P450 2D6) was “Not Active” and the IC50 (Cytochrome P450 2C19) was 23.4 µM. For the same compound, the Efficacy [15] was 94%, the selectivity ratio (CYP2C9) was 4 and the Activity (Mus musculus [16]) was “Active”. It also gave an EC50 [17] of 0.169 µM, an Efficacy [18] of 93% and a CL (Rattus norvegicus [19]) of 19.8 mL/min/kg.
